{"source": "paper PMC9386018", "about": "“A lymphatic-absorbed multi-targeted kinase inhibitor for myelofibrosis therapy” (Nature Communications, 2022)", "key": {"[1]": {"assay": "Bioavailability studies: recovery in feces and urine", "type": "in vivo, mouse", "details": "for LP-182 Recovered (mg) Feces / LP-182 Recovered (mg) Urine / Fa: individual replicates; for Fa: from Feces, read-out: LP-182 Bioavailability (%)", "experimental": "Seven groups of female CD-1 mice (n = 4 per dosing group) received a single oral dose of LP-182 at 0, 100, 200, 400, 600, 800 and 1000 mg kg^−1 solubilized in Maisine CC. […] Urine and fecal samples were collected over 24 h at 24, 48 and 72 h intervals using metabolic cages, and quantitation of LP-182 in each sample was determined by the University of Michigan Pharmacokinetics Core. Briefly, water was added to fecal samples at an average ratio of 2.5 ± 1.6 (w/w) water:feces to generate fecal homogenates using a tissue homogenizer (Omni International TH), then approximately 200 mg of homogenate was diluted 5-fold with 20% (v/v) acetonitrile in water prior to analysis. […] The cumulative amount of compound recovered over 72 h in feces and urine was determined from sample analyte concentrations provided by the core, then converted to percent recovered by normalization to the amount of compound administered. […] LP-182 dose (mg kg^−1):LP-182 administered (mg) is 100:2.7; 200:5.4; 400:10.8; 600:16.2; 800:21.6; 1000:27.0. Data was generated from n = 4 individual animals per compound dose."}, "[2]": {"test_system": "MPL^W515L mouse model of myelofibrosis", "assay": "MPL^W515L MF mouse model: spleen volume by MRI (Study 1)", "type": "in vivo", "details": "MPL^W515L mice; for Spleen volume to body weight ratio (mm3/g): individual animals", "experimental": "Generation of the MPL^W515L mutant MF mouse model was similar to previously described methods. Briefly, female donor BALB/c mice were treated with 5-fluorouracil at 150 mg kg^−1 intraperitoneal for 5 d before harvesting bone marrow. Hematopoietic stem and progenitor cells were enriched with CD117 magnetic beads (Miltenyi Biotec), transduced with retrovirus containing MSCV-hMPL W515L-IRES-GFP, then 50,000 transduced HSPCs along with 300,000 total non-stem cells were injected intravenously into lethally irradiated female BALB/c recipients. Development of MF was evaluated by spleen volumes using MRI beginning ~14 d following bone marrow transplantation (BMT) as outlined below, continuing weekly until end of the study. Mice were separated into equal groups based on spleen size ~14–21 d post-BMT, then treated with vehicle (Maisine CC) or LP-182 at 400 mg kg^−1 daily by oral gavage for 14–28 d or until mice were euthanized using guidelines for end stage illness and humane endpoints. Untreated healthy control animals were used for experimental comparisons. Tissues were harvested and processed for flow cytometry (as described above), LCMS/MS, immuno-blotting, and histological analysis (as described in Supplementary Methods) at the defined study endpoint(s), approximately 1–2 h post-treatment with vehicle or LP-182. Briefly, blood samples were collected, transferred into K2-EDTA tubes (BD Microtainer), inverted gently to mix, then centrifuged at 2000 x g for 15 min. […] Dissection and bone marrow isolation from mouse femur and tibia was performed similar to previously described methods. Briefly, the hind limbs from mice were dissected, muscle and connective tissue removed, and bones were frozen at −80 °C. Femur and tibia were thawed separately, placed knee-end down in 18 gauge needle-pierced 0.5 mL microcentrifuge tubes nested inside 1.5 or 2 mL microcentrifuge tubes containing 1.4 mm ceramic beads (Fisher Scientific), then bone marrow was isolated by centrifugation at 10,000 x g for 1 min and processed for analysis by LCMS/MS (above; femur) or immuno-blotting (tibia). […] Soluble protein extracts were isolated by centrifugation at 15,000 x g for 15 min at 4 °C, quantified using Micro BCA protein assay (Thermo Scientific), then mixed with reducing 6X SDS-PAGE loading dye, heated for 8 min at 95 °C, and stored at −20 °C until immuno-blot analysis. Whole cell lysates were resolved by 10% SDS-PAGE, transferred to PVDF (Immobilon-P; MilliporeSigma), then membranes were blocked with 5% BSA (Equitech-Bio) in TBS containing 0.1% Tween-20 (TBST) for 1 h at room temperature with gentle orbital shaking. Membranes were incubated with primary antibodies in 5% BSA/TBST overnight at 4 °C or 5% skim milk/TBST (Lab Scientific) for 1 h at room temperature, then washed with TBST, and incubated with HRP-conjugated secondary antibodies in 5% skim milk/TBST for 1.5 h at room temperature, all with gentle platform rocking. Membranes were washed with TBST, then visualized by chemiluminescence on a BioRad ChemiDoc MP Imaging System using SuperSignal West PicoPLUS or West Femto Chemiluminescent Substrate (Thermo Scientific). Membranes were stripped using Restore PLUS Western Blot Stripping Buffer (Thermo Scientific) as per manufacturer’s instructions and re-probed with additional primary antibodies as described above. […] All antibodies were used at dilutions recommended by their specified manufacturers or optimized empirically. Additional reagents were purchased from MilliporeSigma (St. Louis, MO) unless otherwise specified. Tissues for histology were formalin-fixed, paraffin-embedded, sectioned, and stained with Hematoxylin and Eosin (H&E) to assess cellularity and tissue morphology, with Reticulin Stain Kit (Connective Tissue Stain; Abcam) to assess fibrosis, or processed for immunohistochemistry staining with GFP to assess MPL^W515L-positive cellularity. […]"}}, "note": "Values joined by “and” are separate entries in the source; they are usually repeats but may differ in a detail not shown here. Equal entries are not always repeated. Where two headings read alike, the source gives them in different places."}
{"smiles": "O=C(NOCCOCCOCCOCCC(=O)N1CCN(c2cnc3ccc(-c4cnc(Cl)c(NS(=O)(=O)c5ccc(F)cc5)c4)cc3n2)CC1)c1ccc(F)c(F)c1Nc1ccc(I)cc1F", "note": "[LP-182, N-(2-(2-(2-(3-(4-(7-(6-chloro-5-((4-fluorophenyl)sulfonamido)pyridin-3-yl)quinoxalin-2-yl)piperazin-1-yl)-3-oxopropoxy)ethoxy)ethoxy)ethoxy)-3,4-difluoro-2-((2-fluoro-4-iodophenyl)amino)benzamide]", "values": [{"measurement": "LP-182 Recovered (mg) Feces", "setting": "[1]; Dose 100 mg/kg", "result": "0.2704 mg and 0.2192 mg and 0.3774 mg and 0.8162 mg"}, {"measurement": "LP-182 Recovered (mg) Feces", "setting": "[1]; Dose 200 mg/kg", "result": "0.8447 mg and 0.5724 mg and 1.4803 mg and 1.5068 mg"}, {"measurement": "LP-182 Recovered (mg) Feces", "setting": "[1]; Dose 400 mg/kg", "result": "1.4042 mg and 2.0055 mg and 2.0997 mg and 2.356 mg"}, {"measurement": "LP-182 Recovered (mg) Feces", "setting": "[1]; Dose 600 mg/kg", "result": "3.3135 mg and 1.6755 mg and 3.7882 mg and 2.917 mg"}, {"measurement": "LP-182 Recovered (mg) Feces", "setting": "[1]; Dose 800 mg/kg", "result": "3.1521 mg and 5.2995 mg and 6.9935 mg and 3.8874 mg"}, {"measurement": "LP-182 Recovered (mg) Feces", "setting": "[1]; Dose 1000 mg/kg", "result": "3.5565 mg and 6.4352 mg and 5.241 mg and 6.6537 mg"}, {"measurement": "LP-182 Recovered (mg) Urine", "setting": "[1]; Dose 100 mg/kg", "result": "0.001008 mg and 1.367e-05 mg and 0.0001025 mg and 0.00204 mg"}, {"measurement": "LP-182 Recovered (mg) Urine", "setting": "[1]; Dose 200 mg/kg", "result": "4.24e-05 mg and 0.0002221 mg and 5.303e-05 mg and 0.0002304 mg"}, {"measurement": "LP-182 Recovered (mg) Urine", "setting": "[1]; Dose 400 mg/kg", "result": "0.0004111 mg and 0.000386 mg and 0.0002292 mg and 0.001169 mg"}, {"measurement": "LP-182 Recovered (mg) Urine", "setting": "[1]; Dose 600 mg/kg", "result": "0.00017 mg and 0.02442 mg and 0.000379 mg and 0.001062 mg"}, {"measurement": "LP-182 Recovered (mg) Urine", "setting": "[1]; Dose 800 mg/kg", "result": "2.655e-05 mg and 0.001833 mg and 0.0008829 mg and 0.0002937 mg"}, {"measurement": "LP-182 Recovered (mg) Urine", "setting": "[1]; Dose 1000 mg/kg", "result": "0.0001091 mg and 2.205e-05 mg and 2.702e-05 mg and 0.001664 mg"}, {"measurement": "Fa", "setting": "[1]; female, CD-1, mouse, feces, oral, 200 mg/kg, Dose 200 mg/kg", "result": 84.4, "unit": "%"}, {"measurement": "Fa", "setting": "[1]; female, CD-1, mouse, feces, oral, 400 mg/kg, Dose 400 mg/kg", "result": 87, "unit": "%"}, {"measurement": "Fa", "setting": "[1]; female, CD-1, mouse, feces, oral, 600 mg/kg, Dose 600 mg/kg", "result": 79.5, "unit": "%"}, {"measurement": "Fa", "setting": "[1]; female, CD-1, mouse, feces, oral, 800 mg/kg, Dose 800 mg/kg", "result": 85.4, "unit": "%"}, {"measurement": "Fa", "setting": "[1]; female, CD-1, mouse, feces, oral, 1000 mg/kg, Dose 1000 mg/kg", "result": 86.8, "unit": "%"}, {"measurement": "dose excreted at 24 h", "setting": "[1]; female, CD-1, mouse, mice, oral, feces collected after 24 h, read-out: recovery from fecal samples, % of total recovered", "result": "~95", "unit": "%"}, {"measurement": "dose excreted at 48 h", "setting": "[1]; female, CD-1, mouse, mice, oral, feces collected after 48 h, read-out: recovery from fecal samples, % of total recovered", "result": 5, "unit": "%"}, {"measurement": "Fa", "setting": "[1]; Dose 100 mg/kg, 100 mg/kg", "result": "90% and 91.9% and 86% and 69.8%"}, {"measurement": "Fa", "setting": "[1]; Dose 200 mg/kg, 200 mg/kg", "result": "89.4% and 72.6% and 72.1%"}, {"measurement": "Fa", "setting": "[1]; Dose 400 mg/kg, 400 mg/kg", "result": "81.4% and 80.6% and 78.2%"}, {"measurement": "Fa", "setting": "[1]; Dose 600 mg/kg, 600 mg/kg", "result": "89.7% and 76.6% and 82%"}, {"measurement": "Fa", "setting": "[1]; Dose 800 mg/kg, 800 mg/kg", "result": "75.5% and 67.6% and 82%"}, {"measurement": "Fa", "setting": "[1]; Dose 1000 mg/kg, 1000 mg/kg", "result": "76.2% and 80.6% and 75.4%"}, {"measurement": "dose-independent fecal excretion (% drug recovered) of intact compound", "setting": "[1]; mice, oral 100-1000 mg kg^−1, over 72 h", "result": "approximately 20%"}, {"measurement": "amount recovered in the urine", "setting": "[1]; mice, oral, all time points (24, 48, 72 h)", "result": "negligible amounts"}, {"measurement": "oral bioavailability, lower threshold limit", "setting": "[1]; mice, difference of administered and recovered in feces over 72 h", "result": "≥ 80", "unit": "%"}, {"measurement": "Spleen volume to body weight ratio (mm3/g)", "setting": "[2]; LP-182 group, treatment length 0 d (baseline)", "result": "31.0875 mm3/g and 17.4312 mm3/g and 19.0791 mm3/g and 34.919 mm3/g and 29.5281 mm3/g"}, {"measurement": "Spleen volume to body weight ratio (mm3/g)", "setting": "[2]; LP-182 group, treatment length -7 d (before treatment)", "result": "15.1103 mm3/g and 6.53 mm3/g and 9.708 mm3/g and 8.386 mm3/g and 11.4368 mm3/g"}, {"measurement": "reduction of spleen volume compared to vehicle", "setting": "[2]; oral 400 mg kg^−1 daily, after 14 d", "result": "~ 35%"}, {"measurement": "Spleen volume to body weight ratio (mm3/g)", "setting": "[2]; oral 400 mg kg^−1 daily, treatment length 7 d", "result": "26.2397 mm3/g and 11.9227 mm3/g and 23.2289 mm3/g and 24.8013 mm3/g and 24.121 mm3/g"}, {"measurement": "Spleen volume to body weight ratio (mm3/g)", "setting": "[2]; oral 400 mg kg^−1 daily, treatment length 14 d", "result": "25.0148 mm3/g and 4.765 mm3/g and 27.3514 mm3/g and 25.4021 mm3/g and 32.6974 mm3/g"}, {"measurement": "Spleen volume to body weight ratio (mm3/g)", "setting": "[2]; oral 400 mg kg^−1 daily, treatment length 21 d", "result": "28.0008 mm3/g and 4.203 mm3/g and 24.753 mm3/g and 31.0963 mm3/g and 27.5586 mm3/g"}]}
